Assays:
E. faecalis = assay: High throughput assay screening of prebiotics; format: cell-based, Enterococcus faecalis; set-up: key: ++: if growth and fermentation was equal to or greater than the positive control; +: if growth and fermentation was less than the positive control; +: if weak or no growth or fermentation; +^2: Bacteria demonstrated growth but no fermentation on the prebiotic; conditions: 2% w/v prebiotic in API 50 CHL media; for growth and fermentation vs positive control, Ef-1: E. faecalis ATCC BAA-2128, Culture Collection; for growth and fermentation vs positive control, Ef-2: E. faecalis KC16-7171-3, Bladder; for growth and fermentation vs positive control, Ef-3: E. faecalis KC17-3969-2B, Bladder; for growth and fermentation vs positive control, Ef-4: E. faecalis KC17-4331-3, Bladder
Experimental: (§1) Most of the prebiotic compounds were initially tested in a high throughput assay screening process, described further in the Test Methods section herein, but three prebiotics (as noted in Table 3) were tested using a plate assay screening process as described in the Test Methods section herein. The prebiotics were tested against the commensal bacterial species of Lactobacillus crispatus, Lactobacillus gasseri, and Lactobacillus jensenii and against the pathogenic bacterial species of Streptococcus anginosus and Enterococcus faecalis as shown in Table 2. The bacterial species were taken from different sources, listed as culture collection, bladder, and vagina.
(§2) The results of the assay plate screening of the prebiotic compounds of Table 1 against the bacterial species of Table 2 is documented in Table 3 with the results being described by the following legend: • ++ if growth and fermentation was equal to or greater than the positive control • + if growth and fermentation was less than the positive control • […] if weak or no growth or fermentation • NT if not tested Some codes were not tested based on the use or non-use by the bacteria, as a way to efficiently move through the assay plate screening to the competition assay, described below.
(§3) • 1. Create a 2% w/v stock of prebiotic or positive control (glucose/dextrose) to be tested in API 50 CHL media (Biomerieux, Marcy-I'Étoile, France). API 50 CHL media contains minimal amounts of carbon for growth, and a bromocresol purple as a pH indicator of fermentation. Filter sterilize media with a […]. Store at 4-6° C. until use. • 2. Add 180 μL of media containing the prebiotic to a sterile, flat bottom 96-well microtiter plate (Corning, Corning, NY). • 3. From a freezer stock subculture the bacteria twice into De Man, Rogosa and Sharpe (MRS) broth (BD Difco, Becton Dickinson, Franklin Lakes, NJ), 37° C., stationary, anaerobic, overnight. • 4. From the last subculture, plate onto an MRS agar plate (Teknova, Hollister, CA) and grow 37° C., stationary, anaerobic, overnight. • 5. Create a bacterial suspension by using a sterile tipped swab to transfer colonies of bacteria into a PBS suspension blank to a 0.5 MacFarland (S. anginosus or E. faecalis) or a 1 MacFarland (Lactobacillus species) from the MRS agar plate. • 6. Enumerate the starting culture. • 7. Inoculate the media alone and media containing the prebiotic or positive control with 20 μL of the bacterial suspension. • 8. Place the plate into a spectrophotometer (Molecular Devices, San Jose, CA) and read the plate every 20 minutes for 24-48 hours. Read wavelengths (OD 430, OD 590, and OD 660). A color change to yellow caused by a drop in pH will be read by an increase in the OD430 value and a decrease in the OD590 value and is indicative of bacterial fermentation. An increase in OD660 values is indicative of an increase in turbidity and bacterial growth.

L. crispatus = assay: High throughput assay screening of prebiotics; format: cell-based, Lactobacillus crispatus; set-up: key: ++: if growth and fermentation was equal to or greater than the positive control; +: if growth and fermentation was less than the positive control; +: if weak or no growth or fermentation; +^2: Bacteria demonstrated growth but no fermentation on the prebiotic; conditions: 2% w/v prebiotic in API 50 CHL media; for growth and fermentation vs positive control, Lc-4: L. crispatus KC18-1174-1, Vagina; for growth and fermentation vs positive control, Lc-1: L. crispatus ATCC 33820, Culture Collection; for growth and fermentation vs positive control, Lc-2: L. crispatus KC16-7134-3C, Bladder; for growth and fermentation vs positive control, Lc-3: L. crispatus KC18-1173-1, Bladder
Experimental: as §1, §2, §3

L. gasseri = assay: High throughput assay screening of prebiotics; format: cell-based, Lactobacillus gasseri; set-up: key: ++: if growth and fermentation was equal to or greater than the positive control; +: if growth and fermentation was less than the positive control; +: if weak or no growth or fermentation; +^2: Bacteria demonstrated growth but no fermentation on the prebiotic; conditions: 2% w/v prebiotic in API 50 CHL media; for growth and fermentation vs positive control, Lg-1: L. gasseri KC16-7135-1, Bladder; for growth and fermentation vs positive control, Lg-2: L. gasseri KC16-7171-1, Bladder
Experimental: as §1, §2, §3

S. anginosus = assay: High throughput assay screening of prebiotics; format: cell-based, Streptococcus anginosus; set-up: key: ++: if growth and fermentation was equal to or greater than the positive control; +: if growth and fermentation was less than the positive control; +: if weak or no growth or fermentation; +^2: Bacteria demonstrated growth but no fermentation on the prebiotic; conditions: 2% w/v prebiotic in API 50 CHL media; for growth and fermentation vs positive control, Sa-2: S. anginosus KC18-1131-3B, Bladder; for growth and fermentation vs positive control, Sa-1: S. anginosus ATCC 33397, Culture Collection
Experimental: as §1, §2, §3

[1] = test system: commensal and pathogenic bacterial species; assay: Prebiotic screening, summary in words across species; format: cell-based; conditions: commensal (L. crispatus, L. gasseri, L. jensenii) and pathogenic (S. anginosus, E. faecalis) species
Experimental: as §1, §2, §3
• 1. An in house bacterial agar was created based on MRS agar (Kaplan and Hutkins, 2000) where the glucose is substituted for the prebiotic to be tested (either dextran MW ˜6,000, alpha-cyclodextrin, glucomannan, or pectin), bromocresol purple was included as a pH indicator. • 2. Bacteria were enumerated on each agar and color changes were recorded. Method for Competition Assay (Modified from “In Vitro Evaluation of Nutrients that Selectively Confer a Competitive Advantage to Lactobacilli” Vongsa et al, Beneficial Microbes 2016) • 1. Create 2% w/v stock of prebiotic or positive control (glucose/dextrose) as described above. • 2. From a freezer stock subculture the bacteria twice into De Man, Rogosa and Sharpe (MRS) broth (BD Difco, Becton Dickinson, Franklin Lakes, NJ), 37° C., stationary, anaerobic, overnight. • 3. From the last subculture, plate onto an MRS agar plate for L. crispatus KC18-1173-1 or blood agar for S. anginosus KC18-1131-3B, grow 37° C., stationary, anaerobic, overnight. • 4. […]

| SMILES | growth and fermentation vs positive control, Ef-1 (E. faecalis) | growth and fermentation vs positive control, Ef-2 (E. faecalis) | growth and fermentation vs positive control, Ef-3 (E. faecalis) | growth and fermentation vs positive control, Ef-4 (E. faecalis) | growth and fermentation vs positive control, Lc-4 (L. crispatus) | growth and fermentation vs positive control, Lg-4 (L. gasseri; L. gasseri KC18-1142-2, Bladder) | growth and fermentation vs positive control, Sa-2 (S. anginosus) | overall outcome of the screening of Table 3, in words [1] | growth and fermentation vs positive control, Lc-1 (L. crispatus) | growth and fermentation vs positive control, Lc-2 (L. crispatus) | growth and fermentation vs positive control, Lc-3 (L. crispatus) | growth and fermentation vs positive control, Lg-1 (L. gasseri) | growth and fermentation vs positive control, Lg-2 (L. gasseri) | growth and fermentation vs positive control, Sa-1 (S. anginosus) |
| --- | --- | --- | --- | --- | --- | --- | --- | --- | --- | --- | --- | --- | --- | --- |
| O=C(CO)[C@@H](O)[C@@H](O)[C@H](O)CO [Tagatose] | ++ | ++ | ++ | ++ |  |  |  |  |  |  |  |  |  |  |
| OC[C@H]1O[C@@H](O[C@@H]2[C@@H](CO)OC(O)(CO)[C@H]2O)[C@H](O)[C@@H](O)[C@H]1O (mixture of isomers) [Lactulose] |  |  | +^2 | +^2 | ++ | + | ++ |  |  |  |  |  |  |  |
| O=C(O)CC(O)C(=O)O (racemic) [DL-Malic acid, DL-Malic acid (Malate)] |  |  |  |  |  |  |  | not able to provide growth for most, if not all, commensal and pathogenic bacterial species |  |  |  |  |  |  |
| CC(=O)N[C@H]1C(O)O[C@H](CO)[C@@H](O)[C@@H]1O (stereo partly shown) [N-Acetylglucosamine] | ++ | ++ | ++ | ++ | + |  | ++ | able to provide growth on the commensal bacterial species, but also provided growth on the pathogenic bacterial species | ++ | + | ++ | ++ | ++ | ++ |
| OC[C@H]1O[C@@H](O)[C@H](O)[C@@H](O)[C@@H]1O [Beta-D-glucose, Beta-D-Glucose] | ++ | ++ | ++ | ++ | ++ |  | ++ | able to provide growth on the commensal bacterial species, but also provided growth on the pathogenic bacterial species | ++ | ++ | ++ | ++ | ++ | ++ |
| OC[C@@H](O)[C@H](O)[C@@H](O)CO [Xylitol] |  |  |  |  |  |  |  | not able to provide growth for most, if not all, commensal and pathogenic bacterial species |  |  |  |  |  |  |
